{"source": "ChEMBL document CHEMBL4152309", "about": "“N-phenylsulfonyl-3,5-bis(arylidene)-4-piperidone derivatives as activation NF-κB inhibitors in hepatic carcinoma cell lines” (Eur J Med Chem, 2018)", "key": {"L02": {"test_system": "L02", "test": "Cytotoxicity against human LO2 cells assessed as reduction in cell viability after 24 hrs by MTT assay", "assay_type": "cell-based", "settings": "L02, 24 h"}, "HepG2 [1]": {"test_system": "HepG2", "test": "Cytotoxicity against human HepG2 cells assessed as reduction in cell viability after 24 hrs by MTT assay", "assay_type": "functional, cell-based"}, "QGY-7703 [2]": {"test_system": "QGY-7703", "test": "Induction of apoptosis in human QGY7703 cells assessed as increase in late apoptotic cells after 24 hrs by Annexin-V-FITC/propidium iodide staining based flow cytometry", "assay_type": "functional, cell-based"}, "SMMC-7721 [3]": {"test_system": "SMMC-7721", "test": "Induction of apoptosis in human SMMC7721 cells assessed as increase in early apoptotic cells after 24 hrs by Annexin-V-FITC/propidium iodide staining based flow cytometry", "assay_type": "functional, cell-based"}, "HepG2 [4]": {"test_system": "HepG2", "test": "Inhibition of TNFalpha-stimulated NFkappaB activation in human HepG2 cells assessed as reduction in IkappaB phosphorylation pretreated for 2 hrs followed by LPS-stimulation and measured after 15 mins by Western blot method", "assay_type": "cell-based"}, "RAW264.7 [5]": {"test_system": "RAW264.7", "test": "Inhibition of LPS-stimulated NFkappaB activation in mouse RAW264.7 cells assessed as reduction in IkappaB phosphorylation at 1 to 10 uM pretreated for 2 hrs followed by LPS-stimulation and measured after 15 mins by Western blot method", "assay_type": "cell-based"}, "QGY-7703 [6]": {"test_system": "QGY-7703", "test": "Cytotoxicity against human QGY7703 cells assessed as reduction in cell viability after 24 hrs by MTT assay", "assay_type": "functional, cell-based"}, "QGY-7703 [7]": {"test_system": "QGY-7703", "test": "Induction of apoptosis in human QGY7703 cells assessed as increase in early apoptotic cells after 24 hrs by Annexin-V-FITC/propidium iodide staining based flow cytometry", "assay_type": "functional, cell-based"}, "[8]": {"test": "Cytotoxicity against mouse RAW264.7 cells assessed as cell viability at 10 uM after 24 hrs by MTT assay relative to control", "assay_type": "cell-based", "settings": "read-out: Activity"}, "SMMC-7721 [9]": {"test_system": "SMMC-7721", "test": "Cytotoxicity against human SMMC7721 cells assessed as reduction in cell viability after 24 hrs by MTT assay", "assay_type": "functional, cell-based"}, "HepG2 [10]": {"test_system": "HepG2", "test": "Induction of apoptosis in human HepG2 cells assessed as decrease in Bcl2 expression after 24 hrs by Western blot analysis", "assay_type": "functional, cell-based"}, "HepG2 [11]": {"test_system": "HepG2", "test": "Induction of apoptosis in human HepG2 cells assessed as increase in early apoptotic cells after 24 hrs by Annexin-V-FITC/propidium iodide staining based flow cytometry", "assay_type": "functional, cell-based"}, "[12]": {"test": "Cytotoxicity against human HHL5 cells assessed as reduction in cell viability after 24 hrs by MTT assay", "assay_type": "cell-based", "settings": "HHL-5, 24 h"}, "RAW264.7 [13]": {"test_system": "RAW264.7", "test": "Inhibition of LPS-stimulated NFkappaB activation in mouse RAW264.7 cells assessed as reduction in p65 phosphorylation at 1 to 10 uM pretreated for 2 hrs followed by LPS-stimulation and measured after 15 mins by Western blot method", "assay_type": "cell-based"}, "SMMC-7721 [14]": {"test_system": "SMMC-7721", "test": "Induction of apoptosis in human SMMC7721 cells assessed as increase in late apoptotic cells after 24 hrs by Annexin-V-FITC/propidium iodide staining based flow cytometry", "assay_type": "functional, cell-based"}, "RAW264.7 [15]": {"test_system": "RAW264.7", "test": "Anti-inflammatory activity in mouse RAW264.7 cells assessed as inhibition of LPS-induced TNFalpha secretion at 10 uM pretreated for 2 hrs followed by LPS stimulation and measured after 22 hrs by ELISA", "assay_type": "functional, cell-based"}, "[16]": {"target": "Transcription factor p65 (Mus musculus) (UniProt Q04207)", "sequence (Q04207 whole entry)": "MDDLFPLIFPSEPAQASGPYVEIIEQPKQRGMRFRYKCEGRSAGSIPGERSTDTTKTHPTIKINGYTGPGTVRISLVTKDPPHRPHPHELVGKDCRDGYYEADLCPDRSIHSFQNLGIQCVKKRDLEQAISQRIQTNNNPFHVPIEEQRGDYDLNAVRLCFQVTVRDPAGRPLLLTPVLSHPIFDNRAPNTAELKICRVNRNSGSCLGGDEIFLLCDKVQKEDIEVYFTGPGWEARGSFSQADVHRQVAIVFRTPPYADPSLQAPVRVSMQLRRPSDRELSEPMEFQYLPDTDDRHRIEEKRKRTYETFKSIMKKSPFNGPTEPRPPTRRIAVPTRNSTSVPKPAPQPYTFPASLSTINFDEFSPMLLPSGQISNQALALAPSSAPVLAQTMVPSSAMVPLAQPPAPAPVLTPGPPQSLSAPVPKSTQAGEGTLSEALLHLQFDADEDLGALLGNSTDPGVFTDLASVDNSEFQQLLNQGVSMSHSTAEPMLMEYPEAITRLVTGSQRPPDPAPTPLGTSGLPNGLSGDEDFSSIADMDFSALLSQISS", "test": "Inhibition of LPS-stimulated NFkappaB p65 nuclear translocation in mouse RAW264.7 cells at 5 uM pretreated for 2 hrs followed by LPS-stimulation and measured after 15 mins by DAPI staining based microscopic analysis", "assay_type": "cell-based"}, "HepG2 [17]": {"test_system": "HepG2", "test": "Induction of apoptosis in human HepG2 cells assessed as increase in Bax expression after 24 hrs by Western blot analysis", "assay_type": "functional, cell-based"}, "[18]": {"target": "Transcription factor p65 (Homo sapiens) (UniProt Q04206)", "sequence (Q04206 whole entry)": "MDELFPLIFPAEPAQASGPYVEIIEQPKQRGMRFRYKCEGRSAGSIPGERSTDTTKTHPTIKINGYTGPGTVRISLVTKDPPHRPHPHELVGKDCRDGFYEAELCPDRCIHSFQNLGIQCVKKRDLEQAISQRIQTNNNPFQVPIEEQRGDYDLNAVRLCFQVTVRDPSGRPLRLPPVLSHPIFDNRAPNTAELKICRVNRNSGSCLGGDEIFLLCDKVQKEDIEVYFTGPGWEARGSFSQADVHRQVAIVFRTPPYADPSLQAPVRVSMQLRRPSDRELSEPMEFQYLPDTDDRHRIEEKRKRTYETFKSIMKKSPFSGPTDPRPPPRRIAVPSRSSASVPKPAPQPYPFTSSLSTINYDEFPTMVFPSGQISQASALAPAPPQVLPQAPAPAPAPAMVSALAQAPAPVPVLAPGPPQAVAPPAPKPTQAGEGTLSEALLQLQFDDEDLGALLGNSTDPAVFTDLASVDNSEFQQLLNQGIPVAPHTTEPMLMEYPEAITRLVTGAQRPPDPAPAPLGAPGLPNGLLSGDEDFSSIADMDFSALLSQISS", "test": "Inhibition of TNFalpha-stimulated NFkappaB p65 nuclear translocation in human HepG2 cells at 5 uM pretreated for 2 hrs followed by LPS-stimulation and measured after 15 mins by DAPI staining based microscopic analysis", "assay_type": "cell-based"}, "RAW264.7 [19]": {"test_system": "RAW264.7", "test": "Anti-inflammatory activity in mouse RAW264.7 cells assessed as inhibition of LPS-induced IL-6 secretion at 10 uM pretreated for 2 hrs followed by LPS stimulation and measured after 22 hrs by ELISA", "assay_type": "functional, cell-based"}, "HepG2 [20]": {"test_system": "HepG2", "test": "Induction of apoptosis in human HepG2 cells assessed as increase in cleaved caspase 3 expression after 24 hrs by Western blot analysis", "assay_type": "functional, cell-based"}, "HepG2 [21]": {"test_system": "HepG2", "test": "Inhibition of TNFalpha-stimulated NFkappaB activation in human HepG2 cells assessed as reduction in p65 phosphorylation pretreated for 2 hrs followed by LPS-stimulation and measured after 15 mins by Western blot method", "assay_type": "cell-based"}, "HepG2 [22]": {"test_system": "HepG2", "test": "Induction of apoptosis in human HepG2 cells assessed as increase in late apoptotic cells after 24 hrs by Annexin-V-FITC/propidium iodide staining based flow cytometry", "assay_type": "functional, cell-based"}}, "note": "Calls of active or inactive are those of the source. The rule behind the calls is not given here.", "data": [{"smiles": "COc1cc(/C=C2\\CN(S(=O)(=O)c3ccc(NC(C)=O)cc3)C/C(=C\\c3ccc(C#N)cc3)C2=O)cc(OC)c1OC", "values": [{"measurement": "IC50", "setting": "L02", "result": 13600, "unit": "nM"}, {"measurement": "Activity", "setting": "HepG2 [1]", "result": "Dose-dependent effect"}, {"measurement": "IC50", "setting": "HepG2 [1]; HepG2, 24 h", "result": 2890, "unit": "nM"}, {"measurement": "Activity", "setting": "QGY-7703 [2]", "result": "Dose-dependent effect"}, {"measurement": "Activity", "setting": "SMMC-7721 [3]", "result": "Dose-dependent effect"}, {"measurement": "inhibition", "setting": "HepG2 [4]", "result": "Dose-dependent effect"}, {"measurement": "inhibition", "setting": "RAW264.7 [5]", "result": "Active"}, {"measurement": "Activity", "setting": "QGY-7703 [6]", "result": "Dose-dependent effect"}, {"measurement": "IC50", "setting": "QGY-7703 [6]; QGY-7703, 24 h", "result": 1890, "unit": "nM"}, {"measurement": "Activity", "setting": "QGY-7703 [7]", "result": "Dose-dependent effect"}, {"measurement": "viability at 24 h, 10 µM", "setting": "[8]", "result": "> 80", "unit": "%"}, {"measurement": "Activity", "setting": "SMMC-7721 [9]", "result": "Dose-dependent effect"}, {"measurement": "IC50", "setting": "SMMC-7721 [9]; SMMC-7721, 24 h", "result": 1730, "unit": "nM"}, {"measurement": "Activity", "setting": "HepG2 [10]", "result": "Dose-dependent effect"}, {"measurement": "Activity", "setting": "HepG2 [11]", "result": "Dose-dependent effect"}, {"measurement": "IC50", "setting": "[12]", "result": 13600, "unit": "nM"}, {"measurement": "inhibition", "setting": "RAW264.7 [13]", "result": "Active"}, {"measurement": "Activity", "setting": "SMMC-7721 [14]", "result": "Dose-dependent effect"}, {"measurement": "inhibition", "setting": "RAW264.7 [15]", "result": "Active"}, {"measurement": "inhibition", "setting": "[16]", "result": "Active"}, {"measurement": "Activity", "setting": "HepG2 [17]", "result": "Dose-dependent effect"}, {"measurement": "inhibition", "setting": "[18]", "result": "Active"}, {"measurement": "inhibition", "setting": "RAW264.7 [19]", "result": "Active"}, {"measurement": "Activity", "setting": "HepG2 [20]", "result": "Dose-dependent effect"}, {"measurement": "inhibition", "setting": "HepG2 [21]", "result": "Dose-dependent effect"}, {"measurement": "Activity", "setting": "HepG2 [22]", "result": "Dose-dependent effect"}]}]}
